# Columns and labels:
# C2C12 Cells = experiment: Oxygen consumption rate (OCR) in C2C12 cells, Seahorse XF-24; format: cell-based, mouse; details: 1 hour treatment
# Description: Measurement of oxygen consumption rates (OCR). OCR measurements were made using a Seahorse XF-24 analyzer (Seahorse Bioscience). C2C12 Cells were seeded in Seahorse XF-24 cell culture microplates at 30,000 cells per well in DMEM media supplemented with 10% FBS and 10 mM glucose, and incubated at 37° C. and 5% CO2 overnight. Treatment with α-KB or DMSO (vehicle control) was for 1 hour. Cells were washed in unbuffered DMEM medium (pH 7.4, 10 mM glucose) just before measurements, and maintained in this buffer with indicated concentrations of α-KB. OCR was measured three times under basal conditions and normalized to protein concentration per well.
# Complex II = target: T1, Complex II (Mus musculus, UniProt Q8K2B3+Q9CQA3+Q9CXV1+Q9CZB0); experiment: Complex II driven coupling assay, isolated liver mitochondria (succinate and rotenone); format: biochemical; details: succinate supplemented
# T1 construct: Mitochondria were isolated from mouse liver as described earlier; from tissue; host or cells: liver mitochondria of 3-month-old C57BL/6 mice
# Description: Animal studies were performed under approved UCLA animal research protocols. Mitochondria from 3-month-old C57BL/6 mice were isolated. Briefly, livers were extracted, minced at 4° C. in MSHE+BSA (70 mM sucrose, 210 mM mannitol, 5 mM HEPES, 1 mM EGTA, and 0.5% fatty acid free BSA, pH 7.2), and rinsed several times to remove blood. All subsequent steps were performed on ice or at 4° C. The tissue was disrupted in 10 volumes of MSHE+BSA with a glass Dounce homogenizer (5-6 strokes) and the homogenate was centrifuged at 800×g for 10 minutes to remove tissue debris and nuclei. The supernatant was decanted through a cell strainer and centrifuged at 8,000×g for 10 minutes. The dark mitochondrial pellet was resuspended in MSHE+BSA and re-centrifuged at 8,000×g for 10 minutes. The final mitochondrial pellet was resuspended in 30 μl of MAS buffer (70 mM sucrose, 220 mM mannitol, 10 mM KH2PO4, 5 mM MgCl2, 2 mM HEPES, 1 mM EGTA, and 0.2% fatty acid free BSA, pH 7.2). Isolated mitochondrial respiration was measured by running coupling and electron flow assays as described. […]
# Mitochondrial respiration was measured by running coupling and electron flow assays. […]
# NADH dehydrogenase = experiment: Electron flow assay, isolated liver mitochondria; format: biochemical, mouse
# Description: Animal studies were performed under approved UCLA animal research protocols. Mitochondria from 3-month-old C57BL/6 mice were isolated. Briefly, livers were extracted, minced at 4° C. in MSHE+BSA (70 mM sucrose, 210 mM mannitol, 5 mM HEPES, 1 mM EGTA, and 0.5% fatty acid free BSA, pH 7.2), and rinsed several times to remove blood. All subsequent steps were performed on ice or at 4° C. The tissue was disrupted in 10 volumes of MSHE+BSA with a glass Dounce homogenizer (5-6 strokes) and the homogenate was centrifuged at 800×g for 10 minutes to remove tissue debris and nuclei. The supernatant was decanted through a cell strainer and centrifuged at 8,000×g for 10 minutes. […] Isolated mitochondrial respiration was measured by running coupling and electron flow assays as described. […] After basal readings, the sequential injections were as follows: 2 μM rotenone (Complex I inhibitor), 10 mM succinate (Complex II substrate), 4 μM antimycin A (Complex III inhibitor), and 10 mM/100 μM ascorbate/tetramethylphenylenediamine (Complex IV substrate). […]
# T1 sequence (Q8K2B3 43-664): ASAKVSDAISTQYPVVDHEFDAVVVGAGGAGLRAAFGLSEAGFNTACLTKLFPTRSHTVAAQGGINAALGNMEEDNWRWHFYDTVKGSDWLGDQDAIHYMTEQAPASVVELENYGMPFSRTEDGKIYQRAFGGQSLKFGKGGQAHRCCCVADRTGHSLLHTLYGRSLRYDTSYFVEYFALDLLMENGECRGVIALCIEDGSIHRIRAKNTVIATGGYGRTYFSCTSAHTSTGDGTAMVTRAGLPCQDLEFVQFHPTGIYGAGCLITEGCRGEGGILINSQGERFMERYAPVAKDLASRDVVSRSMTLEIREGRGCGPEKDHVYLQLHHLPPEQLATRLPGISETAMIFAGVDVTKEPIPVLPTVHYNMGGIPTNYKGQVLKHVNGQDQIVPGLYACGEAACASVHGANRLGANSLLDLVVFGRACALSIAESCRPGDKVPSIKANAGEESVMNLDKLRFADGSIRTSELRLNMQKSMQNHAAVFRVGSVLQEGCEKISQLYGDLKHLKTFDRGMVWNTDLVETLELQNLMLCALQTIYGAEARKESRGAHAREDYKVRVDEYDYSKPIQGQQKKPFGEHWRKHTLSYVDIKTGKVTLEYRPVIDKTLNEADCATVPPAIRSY
# T1 sequence (Q9CQA3 31-282): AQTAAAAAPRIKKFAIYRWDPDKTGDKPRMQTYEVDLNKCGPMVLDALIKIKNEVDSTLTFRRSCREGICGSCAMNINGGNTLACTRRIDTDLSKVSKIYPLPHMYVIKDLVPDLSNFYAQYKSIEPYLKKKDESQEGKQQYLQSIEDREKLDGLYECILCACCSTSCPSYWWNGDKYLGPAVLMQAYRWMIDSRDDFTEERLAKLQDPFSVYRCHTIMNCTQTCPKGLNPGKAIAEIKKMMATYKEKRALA
# T1 sequence (Q9CZB0 30-169): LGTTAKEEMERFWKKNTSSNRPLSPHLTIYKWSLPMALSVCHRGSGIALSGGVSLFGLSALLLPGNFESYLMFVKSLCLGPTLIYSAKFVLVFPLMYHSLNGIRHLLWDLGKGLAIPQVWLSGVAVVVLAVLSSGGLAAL
# T1 sequence (Q9CXV1 57-159): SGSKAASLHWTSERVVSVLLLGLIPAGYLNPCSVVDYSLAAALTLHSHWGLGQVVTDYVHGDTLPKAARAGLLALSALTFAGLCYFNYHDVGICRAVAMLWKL
compound,measurement,setting,value
"C[C@@H](O)CC(=O)O [3-HB, (R)-3-hydroxybutyrate, reference compound]",basal respiration,C2C12 Cells,does not have any effect
same,maximal respiration (mitochondrial respiration upon FCCP treatment),C2C12 Cells,does not have any effect
same,"mitochondrial respiration, Complex II-driven coupling",Complex II,does not affect
same,respiration in electron flow assay,NADH dehydrogenase,does not affect

# Source: US10729668B2, “Ketobutyrate compounds and compositions for treating age-related symptoms and diseases” (The Regents of the University of California, priority 2014, dated 2020)
